{
  "source": "PubChem BioAssay (NCI)",
  "assay_in_all_cases": "NCI anticancer screen, dose series, 48 h",
  "key": {"[1]": {"system": "NCI/ADR-RES ovarian"}, "[2]": {"system": "A498 renal"}, "[3]": {"system": "NCI-H23 lung"}, "[4]": {"system": "MDA-N"}, "[5]": {"system": "MALME-3M melanoma"}, "[6]": {"system": "HCT-116 colon"}, "[7]": {"system": "SF-295 CNS"}, "[8]": {"system": "K-562 leukemia"}, "[9]": {"system": "CAKI-1 renal"}, "[10]": {"system": "NCI-H522 lung"}, "[11]": {"system": "SNB-75 CNS"}, "[12]": {"system": "MOLT-4 leukemia"}, "[13]": {"system": "SNB-19 CNS"}, "[14]": {"system": "TK-10 renal"}, "[15]": {"system": "HCT-15 colon"}, "[16]": {"system": "OVCAR-3 ovarian"}, "[17]": {"system": "NCI-H460 lung"}, "[18]": {"system": "U251 CNS"}, "[19]": {"system": "SK-MEL-2 melanoma"}, "[20]": {"system": "A549 NSCLC"}, "[21]": {"system": "HCC-2998 colon"}, "[22]": {"system": "KM12 colon"}, "[23]": {"system": "PC-3 prostate"}, "[24]": {"system": "NCI-H226 lung"}, "[25]": {"system": "786-0 renal"}, "[26]": {"system": "SW-620 colon"}, "[27]": {"system": "UO-31 renal"}, "[28]": {"system": "MDA-MB-435"}, "[29]": {"system": "MDA-MB-231 breast"}, "[30]": {"system": "OVCAR-4 ovarian"}, "[31]": {"system": "IGROV1 ovarian"}, "[32]": {"system": "SK-MEL-28 melanoma"}, "[33]": {"system": "ACHN renal"}, "[34]": {"system": "EKVX NSCLC"}, "[35]": {"system": "SF-268 CNS"}, "[36]": {"system": "LOX IMVI melanoma"}, "[37]": {"system": "SK-OV-3 ovarian"}, "[38]": {"system": "M14 melanoma"}, "[39]": {"system": "SN12C renal"}, "[40]": {"system": "HS 578T breast"}, "[41]": {"system": "DU-145 prostate"}, "[42]": {"system": "HOP-62 NSCLC"}, "[43]": {"system": "UACC-257 melanoma"}, "[44]": {"system": "CCRF-CEM leukemia"}, "[45]": {"system": "SK-MEL-5 melanoma"}, "[46]": {"system": "SF-539 CNS"}, "[47]": {"system": "MCF7 breast"}, "[48]": {"system": "HT29 colon"}, "[49]": {"system": "BT-549 breast"}, "[50]": {"system": "OVCAR-8 ovarian"}, "[51]": {"system": "HL-60(TB) leukemia"}, "[52]": {"system": "T-47D breast"}, "[53]": {"system": "RPMI-8226 leukemia"}, "[54]": {"system": "UACC-62 melanoma"}, "[55]": {"system": "RXF 393 renal"}, "[56]": {"system": "HOP-92 NSCLC"}, "[57]": {"system": "OVCAR-5 ovarian"}, "[58]": {"system": "COLO 205 colon"}},
  "note": "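1) Cells in 96-well plates. 2) Compound, 48 h, 5 concentrations. 3) Linear interpolation between surrounding doses. 4) Unreached endpoint = highest concentration. TGI: total growth inhibition.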",
  "data": [
    {"smiles": "O=S1(=O)OCCOS(=O)(=O)C1C1c2ccccc2-c2ccccc21", "values": [
      {"measurement": "TGI", "setting": "[1]", "value": 85.1, "unit": "µM"},
      {"measurement": "TGI", "setting": "[2]", "value": "> 100", "unit": "µM"},
      {"measurement": "TGI", "setting": "[3]", "value": "> 100", "unit": "µM"},
      {"measurement": "TGI", "setting": "[4]", "value": "> 100", "unit": "µM"},
      {"measurement": "TGI", "setting": "[5]", "value": "> 100", "unit": "µM"},
      {"measurement": "TGI", "setting": "[6]", "value": "> 100", "unit": "µM"},
      {"measurement": "TGI", "setting": "[7]", "value": "> 100", "unit": "µM"},
      {"measurement": "TGI", "setting": "[8]", "value": "> 100", "unit": "µM"},
      {"measurement": "TGI", "setting": "[9]", "value": 98.5, "unit": "µM"},
      {"measurement": "TGI", "setting": "[10]", "value": 64.5, "unit": "µM"},
      {"measurement": "TGI", "setting": "[11]", "value": 31.9, "unit": "µM"},
      {"measurement": "TGI", "setting": "[12]", "value": 48.2, "unit": "µM"},
      {"measurement": "TGI", "setting": "[13]", "value": "> 100", "unit": "µM"},
      {"measurement": "TGI", "setting": "[14]", "value": "> 100", "unit": "µM"},
      {"measurement": "TGI", "setting": "[15]", "value": "> 100", "unit": "µM"},
      {"measurement": "TGI", "setting": "[16]", "value": "> 100", "unit": "µM"},
      {"measurement": "TGI", "setting": "[17]", "value": 33.7, "unit": "µM"},
      {"measurement": "TGI", "setting": "[18]", "value": 57.9, "unit": "µM"},
      {"measurement": "TGI", "setting": "[19]", "value": "> 100", "unit": "µM"},
      {"measurement": "TGI", "setting": "[20]", "value": "> 100", "unit": "µM"},
      {"measurement": "TGI", "setting": "[21]", "value": "> 100", "unit": "µM"},
      {"measurement": "TGI", "setting": "[22]", "value": "> 100", "unit": "µM"},
      {"measurement": "TGI", "setting": "[23]", "value": "> 100", "unit": "µM"},
      {"measurement": "TGI", "setting": "[24]", "value": "> 100", "unit": "µM"},
      {"measurement": "TGI", "setting": "[25]", "value": "> 100", "unit": "µM"},
      {"measurement": "TGI", "setting": "[26]", "value": "> 100", "unit": "µM"},
      {"measurement": "TGI", "setting": "[27]", "value": 93.2, "unit": "µM"},
      {"measurement": "TGI", "setting": "[28]", "value": "> 100", "unit": "µM"},
      {"measurement": "TGI", "setting": "[29]", "value": "> 100", "unit": "µM"},
      {"measurement": "TGI", "setting": "[30]", "value": 52.4, "unit": "µM"},
      {"measurement": "TGI", "setting": "[31]", "value": "> 100", "unit": "µM"},
      {"measurement": "TGI", "setting": "[32]", "value": "> 100", "unit": "µM"},
      {"measurement": "TGI", "setting": "[33]", "value": "> 100", "unit": "µM"},
      {"measurement": "TGI", "setting": "[34]", "value": "> 100", "unit": "µM"},
      {"measurement": "TGI", "setting": "[35]", "value": "> 100", "unit": "µM"},
      {"measurement": "TGI", "setting": "[36]", "value": 89, "unit": "µM"},
      {"measurement": "TGI", "setting": "[37]", "value": "> 100", "unit": "µM"},
      {"measurement": "TGI", "setting": "[38]", "value": "> 100", "unit": "µM"},
      {"measurement": "TGI", "setting": "[39]", "value": "> 100", "unit": "µM"},
      {"measurement": "TGI", "setting": "[40]", "value": "> 100", "unit": "µM"},
      {"measurement": "TGI", "setting": "[41]", "value": "> 100", "unit": "µM"},
      {"measurement": "TGI", "setting": "[42]", "value": "> 100", "unit": "µM"},
      {"measurement": "TGI", "setting": "[43]", "value": "> 100", "unit": "µM"},
      {"measurement": "TGI", "setting": "[44]", "value": 89.4, "unit": "µM"},
      {"measurement": "TGI", "setting": "[45]", "value": "> 100", "unit": "µM"},
      {"measurement": "TGI", "setting": "[46]", "value": "> 100", "unit": "µM"},
      {"measurement": "TGI", "setting": "[47]", "value": "> 100", "unit": "µM"},
      {"measurement": "TGI", "setting": "[48]", "value": "> 100", "unit": "µM"},
      {"measurement": "TGI", "setting": "[49]", "value": "> 100", "unit": "µM"},
      {"measurement": "TGI", "setting": "[50]", "value": "> 100", "unit": "µM"},
      {"measurement": "TGI", "setting": "[51]", "value": 58.9, "unit": "µM"},
      {"measurement": "TGI", "setting": "[52]", "value": "> 100", "unit": "µM"},
      {"measurement": "TGI", "setting": "[53]", "value": "> 100", "unit": "µM"},
      {"measurement": "TGI", "setting": "[54]", "value": "> 100", "unit": "µM"},
      {"measurement": "TGI", "setting": "[55]", "value": "> 100", "unit": "µM"},
      {"measurement": "TGI", "setting": "[56]", "value": "> 100", "unit": "µM"},
      {"measurement": "TGI", "setting": "[57]", "value": "> 100", "unit": "µM"},
      {"measurement": "TGI", "setting": "[58]", "value": "> 100", "unit": "µM"}
    ]}
  ]
}
